Data: paper PMC11561197, “Computational-guided discovery of UDP-glycosyltransferases for lauryl glucoside production using engineered E. coli” (Bioresources and Bioprocessing, 2024)

Target: T1, RO3G (UDP-glycosyltransferase candidate, EIE92684.1) (Rhizopus delemar, UniProt I1CW54)
T1 construct: gene RO3G_17395; codon-optimised synthetic gene in pCDFDuet-1, expressed in E. coli BL21(DE3); no predicted signal peptide; not purified
T1 sequence (I1CW54 1-527): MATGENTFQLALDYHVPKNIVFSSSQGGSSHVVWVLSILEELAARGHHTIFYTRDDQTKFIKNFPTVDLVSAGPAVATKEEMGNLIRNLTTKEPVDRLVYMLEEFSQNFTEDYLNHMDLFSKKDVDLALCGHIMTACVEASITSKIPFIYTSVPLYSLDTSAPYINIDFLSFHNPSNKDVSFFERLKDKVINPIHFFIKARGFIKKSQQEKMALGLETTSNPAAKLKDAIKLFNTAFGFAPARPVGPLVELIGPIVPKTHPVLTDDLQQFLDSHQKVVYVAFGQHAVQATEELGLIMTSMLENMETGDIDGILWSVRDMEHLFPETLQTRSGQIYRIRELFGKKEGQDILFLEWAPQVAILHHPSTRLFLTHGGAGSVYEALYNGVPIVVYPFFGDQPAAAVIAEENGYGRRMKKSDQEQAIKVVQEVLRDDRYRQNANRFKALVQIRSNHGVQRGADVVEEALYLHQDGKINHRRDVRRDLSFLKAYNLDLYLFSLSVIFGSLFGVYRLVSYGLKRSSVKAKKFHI
Test: 1-dodecanol feeding of expressing E. coli; lauryl glucoside by HPLC-RI and LC-MS
Type: cell-based
Settings: whole E. coli BL21(DE3), M9 with 2% glucose, 2.0 mM 1-dodecanol, 30 °C, 48 h; endogenous UDP-glucose as presumed donor; GFP strain as control

CCCCCCCCCCCCO [1-dodecanol]
1-dodecanol feeding of expressing E. coli; lauryl glucoside by HPLC-RI and LC-MS: The engineered strain successfully converted 1-dodecanol to lauryl glucoside, as quantified by HPLC
